Compound | melting point [°C]
O=C(CCCCCCCCCCCCC(=O)Oc1cc(O)cc(O)c1)Oc1cc(O)cc(O)c1 | 140 to 145
CCCc1cc([N+](=O)[O-])cc2cc(C(=O)OCC)oc12 | 111
CC(=O)Nc1c(C(N)=O)nnn1Cc1ccccc1Cl | 140 to 142
O=C(NO)c1ccc(CNC(=O)c2[nH]c(-c3ccc(O)cc3)cc2-c2ccoc2)cc1 | 122 to 123
Oc1ccc(Nc2n[nH]c3ncnc(Nc4cccc(Cl)c4)c23)cc1 | > 260
Nc1ccc(Cl)c(C(=O)c2sc(Nc3ccc4nc[nH]c4c3)nc2N)c1Cl | 235 to 237
CCc1cccc2c3c([nH]c12)C(CC)(CC(O)O)OCC3 (stereo unspecified) | 158 to 159
CC(C)(C)C(=O)SC[C@H](NC(=O)C(C)(C)SC(=O)C(C)(C)C)C(=O)O | 140 to 141
Cc1cccc(C(=O)Cc2ccnc(F)c2)c1 | 66 to 67
Cc1cc(C)nc(NC(=O)c2ccn3c2CSC3c2cccnc2)c1 (stereo unspecified) | 171
CCN(CC)CCc1c[nH]c2ccc(N(CC)S(=O)(=O)c3ccc4ccccc4c3)cc12 | 49 to 50
CCc1c(C(=O)c2cc(Cl)cc(Cl)c2)[nH]c(=O)[nH]c1=O | 242 to 243
CC(=O)c1c(C)c(NC(=O)CC(C)(C)C)c(C)c2c1SCC2c1ccc(C(C)C)cc1 (stereo unspecified) | 218 to 219
CC(C)(C)CNc1cc(NCC(C)(C)C)nc(N2CCNCC2)n1 | 132 to 136
Cc1ccc(-c2ccc(S(C)(=O)=O)cc2)n1-c1ccc(F)cc1 | 110 to 112
Cc1nnc(COc2cccc3c2CN(C2CCC(=O)NC2=O)C3=O)o1 (stereo unspecified) | 206 to 208
COc1ccc2c(-c3cnc4[nH]cc(C(=O)N[C@H](C)C(=O)N5CC(C#N)C5)c4n3)nn(C)c2c1 | 220 to 240
CCOC(=O)c1c(C(F)(F)F)nc(C(F)(F)Cl)c(C(=O)OC)c1N1CCCC1 | 72 to 73.5
CC(=O)NCC=C1CCc2ccc3nn(C)cc3c21 | 200 to 202
CC(=O)Nc1ccc(F)c(-c2ccncc2)c1F | 148 to 150
CC(C)(C)OC(=O)N1CCC(CNC(=O)[C@@H]2CCCN2S(=O)(=O)c2ccc(Cl)c(CBr)c2Cl)CC1 | 80
CC1(C(=O)O)COC2(CC3CCC2(C)C3(C)C)OC1 (stereo unspecified) | 172 to 175

Compound | melting point [°C]
COc1cc(C(=O)c2ccc(Cl)cc2)cc([N+](=O)[O-])c1O | 128 to 131
CN(C)CCOc1cc(-c2ccccc2)on1 | 28 to 29
O=CNCC1c2ccccc2C=Cc2ccccc21 | 115 to 118
NC1=C(NC=O)C(=O)N2CCN=C2N1Cc1ccccc1 | 248 to 250
O=C(NC1CCN(Cc2ccccc2)CC1)c1n[nH]c2ccccc12 | 198 to 200
O=C(Cc1cccc(O)c1)NNC(=O)c1c(OCc2ccccc2)cc(OCc2ccccc2)cc1OCc1ccccc1 | 154 to 155
COc1c(CC(=O)O)cccc1CC(=O)O | 184 to 186
O=S(=O)(c1ccc(Cl)cc1)N1CCC[C@@H](Nc2nccc(-c3c(-c4cccc(CO)c4)nc4sccn34)n2)C1 | 150 to 155
CNC(=O)c1cc2c(nc(C)n2C)c2c1C[C@@H](O)[C@@H](c1ccccc1)N2 | 265 to 268
CCc1c(-c2ccc(N(C)C)nn2)ssc1=S | 160
O=C1c2ccccc2C(=O)N1OCF | 126 to 127
COCCNC(=O)c1ccc(N2CCC(N3C(=O)OCc4ccccc43)CC2)c([N+](=O)[O-])c1 | 192 to 193
Nc1ccncc1Nc1cccc2cc[nH]c12 | 68 to 70
CCC(CC)n1nnc2c(Oc3c(C)cc(C)cc3C)nc(C)nc21 | 92
CCN1CCN(Cc2ccc(CCn3cnc4cc(-c5ccc(Cl)cc5)sc4c3=O)cc2)C(=O)C1=O | 285 to 288
NCCc1ncccc1C(N)=O | 54
NC(Cc1ccc(C(=O)c2ccccc2)cc1)C(=O)O (racemic) | 217
O=c1n(CCCF)nnn1-c1ccc(Cl)cc1F | 62 to 63
O=Cc1ccc(-c2ccc(C=O)s2)s1 | 213 to 214
N#Cc1ccccc1N1CCCN(Cc2cc3cc(F)ccc3[nH]2)CC1 | 194 to 198
CCNC(=O)N1c2ccccc2CCC1CN1CCN(c2cccc3[nH]ccc23)CC1 (stereo unspecified) | 109 to 112
COC(=O)c1ccccc1NC(=O)OC1CC2C(=O)NC3(C(=O)NS(=O)(=O)C4CC4)CC3C=CCOCCCC(NC(=O)OC(C)(C)C)C(=O)N2C1 (stereo unspecified) | 147 to 149

Compound | melting point [°C]
C=CCN(CCC12CC3CC(CC(C3)C1)C2)C(=O)NCCCc1ccncc1 | 99 to 102
Clc1cccc2c(C3CCN(CCCOc4cccc5[nH]ccc45)CC3)c[nH]c12 | 178 to 182
CCNc1ncc(-c2cc(Cl)cc(Cl)c2Cl)c(N)n1 | 149 to 152
O=C(OCc1ccccc1)c1ccc(OC(=O)c2ccc(O)cc2)cc1 | 137 to 138
Cc1nc(-c2ccccc2)nc(OCC(=O)Nc2ccccc2)c1C | 212 to 213
CC(=O)N1N=C(c2ccc(NC(=O)CCl)cc2)c2cc3c(cc2CC1C)OCO3 (stereo unspecified) | 139 to 140
Nc1cccc2c1ncc1nc3n(c12)CCCC3 | 275 to 278
Brc1ccc(-c2ccc(-c3ccc(Br)o3)cc2)o1 | 155 to 157
Cc1c(C)c2c(c(C)c1OCc1ccccc1)CCC(C)(C(=O)O)O2 (stereo unspecified) | 154 to 155
CN(C)C1CCN(c2nc(N3CCOCC3)c3ncnc(OCc4ccccc4)c3n2)CC1 | 186 to 188
CC(=O)c1ccc(-c2ccc(C(N)=NO)o2)cc1 | 197 to 199
OCc1cc(O)cc2cc(-c3ccc(O)cc3)oc12 | 258 to 260
CC(CO)n1cnc2c(I)ncnc21 (stereo unspecified) | 193 to 194
Cc1ncccc1C(C#N)N1CCN(C(=O)CC(NC(=O)c2ccc(OCc3ccc4ccccc4n3)cc2)c2ccccc2)CC1 (stereo unspecified) | 104 to 110
CC(C)(C)NC(=O)C1(O)CC(C)(C)NC(C)(C)C1 | 134 to 136
O=C(NCCc1c[nH]c2ccc([N+](=O)[O-])cc12)C(F)(F)F | 200 to 201
CCCNCC(O)c1cccc(Br)c1 (stereo unspecified) | 79.7 to 81.4
Cc1cc(C#CC=O)nc(Oc2cc(C(F)(F)F)nn2C)c1 | 73
O=[N+]([O-])c1cnn2c1-c1ccccc1NC2c1ccccc1 (stereo unspecified) | 157 to 158
CCOC(=O)c1c(N(C)CCO)c2ccc(C)nc2n(CC)c1=O | 111 to 113
CS(=O)(=O)N1CCCn2c(nc3c(N)nc4cc(OCc5ccccc5)ccc4c32)C1 | 235 to 236

Other lines, results leading:

melting point [°C] | Compound
227 to 228 | NC(=O)c1cc2c(Oc3ccc(Cl)c(F)c3)cncc2s1
215 | CC(C)(O)c1cnn2c(-c3ccc(F)c(-c4ccc(F)cc4C#N)c3)cnc2n1
120 to 122 | CCOCC1=C(C(=O)OCC)C(c2cccc([N+](=O)[O-])c2)C(C(=O)OCC)=C(C)N1 (stereo unspecified)
178 to 179 | N=C(Nc1cc(Cl)cc(NC(=O)/C=C/c2ccccc2C(F)(F)F)c1)c1cccs1
195 to 197 | Cc1cc(-c2ccc(O)cc2)ccc1C=NO
113 to 114 | COc1cccc(CC(=O)O)c1OCc1nc(OC(C)C)c(C(=O)NCc2ccc(Cl)cc2Cl)s1
281 to 283 | O=C(O)c1nc2ccc(Oc3ccccc3)cc2cc1OCc1ccccc1
208 to 214 | CCCc1c(COc2ccc(C(=O)c3cccc(-c4nnn[nH]4)c3)cc2)ccc(C(C)=O)c1O
164 to 166 | COC(=O)c1ccc(-c2ccc(C#N)s2)nc1
108 to 109 | CC1(C)C(=O)N(c2ccc(N)c(C(F)(F)F)c2)C(=O)N1CCCCCN1C(=O)N(c2ccc(N)c(C(F)(F)F)c2)C(=O)C1(C)C
228 to 229 | CCCCNS(=O)(=O)c1cc(C(=O)O)cc(N)c1Sc1ccc(NC(C)=O)cc1
104 to 106 | COc1ccc2cccc(C(CNC(C)=O)COS(C)(=O)=O)c2c1 (stereo unspecified)
227 | COC(=O)CCCOc1cc(C(=O)O)ccc1NC(=O)NC(=O)c1cc(F)c(F)cc1Cl
134 to 137 | C=Cc1ccc(Nc2c(C(=O)NOCCO)ccc(F)c2F)c(F)c1
105 to 107 | CS(=O)CC1=C(c2ccccc2)C(=O)N(C(C)(C)C(=O)Nc2cc(F)ccc2F)CO1 (stereo unspecified)
61 | CCCCCNC(=O)N(C)c1cccc(-c2ccc(C=C(OC)C(=O)O)cc2OCCCC)c1

melting point [°C] | Compound
42 to 43 | CCCCCCCCCCOc1c(Br)sc(-c2nc3ccccc3s2)c1OCCCCCCCCCC
92 to 94 | COc1ccc(CCC(=O)NCc2ccccc2)cc1
168 to 172 | COc1ccc(OC)c(S(=O)(=O)NC(=O)C(C)Oc2cc(-n3nc(C)n(C(F)F)c3=O)c(F)cc2Cl)c1 (stereo unspecified)
175 to 177 | CCCCN(CCCC)c1ccc(C=Cc2ccc(C=CC3=C(C#N)C(=C(C#N)C#N)OC3(C)C(F)(F)F)cc2)c(OC)c1 (stereo unspecified)
196 to 198 | CC1(C)N=C(n2nc(O)ccc2=O)c2cc(Br)ccc2O1
170 to 183 | CN(C)CCNCc1ccc(-c2cc3ncnc(Nc4ccc5[nH]ccc5c4)c3s2)cc1
148 to 150 | OCCCCOc1ccc2cc(O)ccc2c1
208 | COc1cc(N)c(Cl)cc1C(=O)N[C@H]1CCN(CCCN2C(=O)c3ccccc3C2=O)C[C@H]1OC (relative stereo)
62 to 65 | CCCCCCCCCCCCCCCCCCC(N=C(c1ccccc1)c1ccccc1)C(=O)OCC (stereo unspecified)
143 to 144 | NC(=S)C=Cc1ccc(SC(F)(F)F)cc1
224 to 225 | C#Cc1ccc(CCNC(=O)c2cc(Cl)ccc2OC)cc1S(=O)(=O)NC(=S)NC
98 to 99 | CCOC(=O)c1c(C(C)(C)O)nc(CO)n1Cc1ccc(-c2ccccc2-c2nnn[nH]2)cc1
197 to 199 | Cc1c(NC(=O)CC(C)(C)C)c(C)c2c(c1-c1cccc(N(C)C)c1)OCC2c1ccc(C(C)C)cc1 (stereo unspecified)
173 | CCC(=O)NS(=O)(=O)c1cccc(-c2cccc(-c3cc(-c4ccc(C(F)(F)F)cc4)cc(C)n3)n2)c1
150 to 154 | COc1ccnc(CCc2nc3cc(-c4ccc(S(=O)(=O)N5CCN(c6ccc(C)cc6)CC5)cc4)cnc3[nH]2)c1

— a melting point compilation (Tetko et al.; mined from patent text by program, amines drawn as free bases though some values may be those of a salt)
